Results: patent US20230139171A1 (SITA Information Networking Computing UK Limited, priority 2019, published 2023)
pIC50: −log10 of the molar value.

Columns and labels:
Assay type in all cases: cell-based
[1] = biological target: T1, human TLR7 (Homo sapiens, UniProt Q9NYK1); assay: TLR7 inhibition reporter assay (HEK-Blue cells, SEAP reporter, gardiquimod stimulation); details: HEK-Blue cells overexpressing human TLR7, SEAP reporter, gardiquimod 7.5 μM; read-out: TLR7 IC50
T1 construct: host or cells: HEK-Blue cells
T1 sequence (Q9NYK1 27-1049): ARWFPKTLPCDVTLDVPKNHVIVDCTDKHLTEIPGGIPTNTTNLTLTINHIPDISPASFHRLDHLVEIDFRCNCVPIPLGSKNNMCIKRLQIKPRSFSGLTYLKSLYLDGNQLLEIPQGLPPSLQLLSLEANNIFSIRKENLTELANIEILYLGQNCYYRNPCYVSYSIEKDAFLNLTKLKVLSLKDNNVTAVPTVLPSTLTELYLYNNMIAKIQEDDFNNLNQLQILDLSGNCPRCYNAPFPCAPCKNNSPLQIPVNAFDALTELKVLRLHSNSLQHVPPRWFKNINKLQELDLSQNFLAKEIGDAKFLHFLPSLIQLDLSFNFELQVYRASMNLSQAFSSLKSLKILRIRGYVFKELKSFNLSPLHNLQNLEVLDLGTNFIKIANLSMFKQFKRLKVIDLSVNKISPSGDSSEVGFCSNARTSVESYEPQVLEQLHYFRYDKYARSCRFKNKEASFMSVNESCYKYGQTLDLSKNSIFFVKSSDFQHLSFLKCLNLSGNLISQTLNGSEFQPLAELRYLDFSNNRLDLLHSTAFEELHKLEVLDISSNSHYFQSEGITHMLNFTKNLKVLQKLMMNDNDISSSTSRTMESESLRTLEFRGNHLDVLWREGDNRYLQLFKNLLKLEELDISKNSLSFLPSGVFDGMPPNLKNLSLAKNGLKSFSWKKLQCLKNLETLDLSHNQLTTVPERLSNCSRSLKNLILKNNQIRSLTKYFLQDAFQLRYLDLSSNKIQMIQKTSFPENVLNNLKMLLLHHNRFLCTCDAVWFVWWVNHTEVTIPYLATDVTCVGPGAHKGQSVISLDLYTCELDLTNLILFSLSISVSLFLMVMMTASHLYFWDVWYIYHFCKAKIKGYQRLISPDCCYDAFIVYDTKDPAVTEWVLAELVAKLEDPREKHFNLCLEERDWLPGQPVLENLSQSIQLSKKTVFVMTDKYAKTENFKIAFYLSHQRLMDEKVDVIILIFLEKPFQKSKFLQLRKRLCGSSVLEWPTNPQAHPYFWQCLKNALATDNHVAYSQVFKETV
Procedure, shortened: (§1)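 HEK-Blue cells overexpressing human TLR7, TLR8 or TLR9 carry a SEAP reporter driven by NF-κB/AP-1 sites. Compounds (0.05 nM–50 μM) were preincubated 30 min at room temperature, then cells were stimulated with gardiquimod 7.5 μM (TLR7), R848 15.9 μM (TLR8) or ODN2006 5 nM (TLR9) for 22 h at 37 °C.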

[2] = biological target: T2, human TLR8 (Homo sapiens, UniProt Q9NR97); assay: TLR8 inhibition reporter assay (HEK-Blue cells, SEAP reporter, R848 stimulation); details: HEK-Blue cells overexpressing human TLR8, SEAP reporter, R848 15.9 μM; read-out: TLR8 IC50
T2 construct: host or cells: HEK-Blue cells
T2 sequence (Q9NR97 27-1041): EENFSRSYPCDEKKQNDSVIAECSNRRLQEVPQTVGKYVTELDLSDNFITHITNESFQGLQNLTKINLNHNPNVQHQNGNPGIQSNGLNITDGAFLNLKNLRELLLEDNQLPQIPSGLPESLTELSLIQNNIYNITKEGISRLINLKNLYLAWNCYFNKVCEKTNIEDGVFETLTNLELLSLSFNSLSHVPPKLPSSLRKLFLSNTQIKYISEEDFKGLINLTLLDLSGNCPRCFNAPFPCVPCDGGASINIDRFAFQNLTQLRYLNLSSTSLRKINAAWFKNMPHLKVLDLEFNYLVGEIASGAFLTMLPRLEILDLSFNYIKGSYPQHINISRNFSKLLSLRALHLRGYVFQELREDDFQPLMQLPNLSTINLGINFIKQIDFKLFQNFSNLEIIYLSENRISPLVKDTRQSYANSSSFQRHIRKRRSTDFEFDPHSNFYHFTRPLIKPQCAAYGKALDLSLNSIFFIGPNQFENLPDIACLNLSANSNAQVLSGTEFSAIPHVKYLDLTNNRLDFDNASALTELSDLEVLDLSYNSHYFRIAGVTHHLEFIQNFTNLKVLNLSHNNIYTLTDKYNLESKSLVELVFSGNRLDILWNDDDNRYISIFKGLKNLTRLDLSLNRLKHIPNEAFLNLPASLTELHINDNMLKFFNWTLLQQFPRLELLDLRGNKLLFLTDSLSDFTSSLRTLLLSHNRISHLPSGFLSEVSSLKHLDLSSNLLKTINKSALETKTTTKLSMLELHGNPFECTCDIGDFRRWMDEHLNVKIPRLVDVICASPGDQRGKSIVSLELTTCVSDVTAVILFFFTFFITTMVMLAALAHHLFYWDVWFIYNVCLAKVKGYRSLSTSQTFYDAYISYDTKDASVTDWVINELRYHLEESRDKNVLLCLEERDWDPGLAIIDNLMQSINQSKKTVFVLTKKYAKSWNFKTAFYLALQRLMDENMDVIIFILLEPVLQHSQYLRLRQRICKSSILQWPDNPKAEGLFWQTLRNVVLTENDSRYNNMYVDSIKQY
Procedure, shortened: as §1

[3] = biological target: T3, human TLR9 (Homo sapiens, UniProt Q9NR96); assay: TLR9 inhibition reporter assay (HEK-Blue cells, SEAP reporter, ODN2006 stimulation); details: HEK-Blue cells overexpressing human TLR9, SEAP reporter, ODN2006 5 nM
T3 construct: host or cells: HEK-Blue cells
T3 sequence (Q9NR96 26-1032): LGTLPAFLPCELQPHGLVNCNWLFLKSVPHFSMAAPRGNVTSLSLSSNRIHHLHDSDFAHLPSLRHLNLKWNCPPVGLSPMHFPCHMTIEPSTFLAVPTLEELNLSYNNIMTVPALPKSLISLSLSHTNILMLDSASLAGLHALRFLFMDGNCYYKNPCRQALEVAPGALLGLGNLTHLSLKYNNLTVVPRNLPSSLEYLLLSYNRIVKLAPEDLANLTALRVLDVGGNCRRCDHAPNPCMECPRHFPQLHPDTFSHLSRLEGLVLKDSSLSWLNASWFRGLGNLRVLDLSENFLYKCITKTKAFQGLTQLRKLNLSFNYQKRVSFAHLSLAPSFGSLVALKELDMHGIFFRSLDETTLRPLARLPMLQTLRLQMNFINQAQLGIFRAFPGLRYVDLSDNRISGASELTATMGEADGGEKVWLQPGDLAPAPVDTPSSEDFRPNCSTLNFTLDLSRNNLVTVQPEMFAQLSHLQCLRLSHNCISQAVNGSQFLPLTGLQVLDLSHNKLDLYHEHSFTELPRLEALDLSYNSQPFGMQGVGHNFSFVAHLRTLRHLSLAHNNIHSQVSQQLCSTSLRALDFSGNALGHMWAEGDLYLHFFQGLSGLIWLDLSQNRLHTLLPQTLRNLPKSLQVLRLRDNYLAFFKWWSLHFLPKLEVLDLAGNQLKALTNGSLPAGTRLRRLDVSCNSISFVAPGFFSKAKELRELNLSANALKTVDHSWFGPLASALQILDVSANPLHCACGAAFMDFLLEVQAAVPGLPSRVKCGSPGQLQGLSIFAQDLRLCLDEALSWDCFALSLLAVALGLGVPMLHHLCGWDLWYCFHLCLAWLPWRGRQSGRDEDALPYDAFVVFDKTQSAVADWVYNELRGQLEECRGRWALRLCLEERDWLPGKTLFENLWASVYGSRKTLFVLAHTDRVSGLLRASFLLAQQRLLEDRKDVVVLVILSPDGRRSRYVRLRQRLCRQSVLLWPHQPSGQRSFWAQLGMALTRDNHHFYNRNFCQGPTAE
Procedure, shortened: as §1

Structure (SMILES) | pIC50 [1] | pIC50 [2] | pIC50 [3]
Cc1c(-c2[nH]c3sc(CNC4CCN(C(C)C)CC4)nc3c2C(C)C)cn2ncnc2c1C [Example 401, N-((5-(7,8-dimethyl-[1,2,4]triazolo[1,5-a]pyridin-6-yl)-6-isopropyl-4H-pyrrolo[3,2-d]thiazol-2-yl)methyl)-1-isopropylpiperidin-4-amine] | 7.43 | 7.45 | 4.87
Cc1c(-c2[nH]c3sc(CNCC4(S(C)(=O)=O)CC4)nc3c2C(C)C)cn2ncnc2c1C [Example 405, 1-(5-(7,8-dimethyl-[1,2,4]triazolo[1,5-a]pyridin-6-yl)-6-isopropyl-4H-pyrrolo[3,2-d]thiazol-2-yl)-N-((1-(methylsulfonyl)cyclopropyl)methyl)methanamine] | 7.11 | 6.67 | 4.42
Cc1c(-c2[nH]c3sc(CN4CC5(CNC5)C4)nc3c2C(C)C)cn2ncnc2c1C [Example 409, 2-((2,6-diazaspiro[3.3]heptan-2-yl)methyl)-5-(7,8-dimethyl-[1,2,4]triazolo[1,5-a]pyridin-6-yl)-6-isopropyl-4H-pyrrolo[3,2-d]thiazole] | 7.32 | 6.46 | 5.01
COc1cc(-c2[nH]c3nc(C4CCNCC4)sc3c2C(C)C)cn2ncnc12 [Example 410, 6-isopropyl-5-(8-methoxy-[1,2, 4]triazolo[1,5-a]pyridin-6-yl)-2-(piperidin-4-yl)-4H-pyrrolo[2,3-d]thiazole] | 6.89 | 6.25 | 5.17
Cc1cc(-c2[nH]c3nc(C4CCNCC4)sc3c2C(C)C)cn2ncnc12 [Example 411, 6-isopropyl-5-(8-methyl-[1,2,4]triazolo[1,5-a]pyridin-6-yl)-2-(piperidin-4-yl)-4H-pyrrolo[2,3-d]thiazole] | 8.74 | 6.70 | 5.51
COc1cc(-c2[nH]c3cc(C4CCNCC4)sc3c2C(C)C)cn2ncnc12 [Example 413, 6-isopropyl-5-(8-methoxy-[1,2,4]triazolo[1,5-a]pyridin-6-yl)-2-(piperidin-4-yl)-4H-thieno[3,2-b]pyrrole] | 8.28 | 8.03 | 5.51

Continued by rising pIC50 [1], values first:

pIC50 [1] | pIC50 [2] | pIC50 [3] | Structure (SMILES)
7.30 | 6.28 | 5.30 | Cc1cc(-c2[nH]c3nc(C4CCN(CC5(C)COC5)CC4)sc3c2C(C)C)cn2ncnc12 [Example 412, 6-isopropyl-5-(8-methyl-[1,2,4]triazolo[1,5-a]pyridin-6-yl)-2-(1-((3-methyloxetan-3-yl)methyl)piperidin-4-yl)-4H-pyrrolo[2,3-d]thiazole]
7.87 | 7.80 | 5.03 | Cc1cc(-c2[nH]c3sc(C(=O)NCCN(C)C)nc3c2C(C)C)cn2ncnc12 [Example 400, N-(2-(dimethylamino)ethyl)-6-isopropyl-5-(8-methyl-[1,2,4]triazolo[1,5-a]pyridin-6-yl)-4H-pyrrolo[3,2-d]thiazole-2-carboxamide]
8.10 | 8.17 | 5.35 | Cc1cc(-c2[nH]c3sc(C(=O)N4CCC(N(C)C)CC4)nc3c2C(C)C)cn2ncnc12 [Example 395, (4-(dimethylamino)piperidin-1-yl)(6-isopropyl-5-(8-methyl-[1,2,4]triazolo[1,5-a]pyridin-6-yl)-4H-pyrrolo[3,2-d]thiazol-2-yl)methanone]
